Converted amounts (≈) assume the structure as drawn. Blank lines part the entries; values can stand above or below the molecule they belong to.
Key:
HCT-116 [1] = assay: Cytotoxicity against human HCT-116 cells assessed as reduction in cell viability incubated for 72 hrs by MTT assay; assay type: functional, cell-based; conditions: HCT-116, 72 h
HL-60 [2] = assay: Cytotoxicity against human HL-60 cells assessed as reduction in cell viability incubated for 72 hrs by MTT assay; assay type: functional, cell-based; conditions: HL-60, 72 h
SF-295 = assay: Cytotoxicity against human SF-295 cells assessed as reduction in cell viability incubated for 72 hrs by MTT assay; assay type: functional, cell-based; conditions: SF-295, 72 h
NCI-H1975 = assay: Cytotoxicity against human NCI-H1975 cells assessed as reduction in cell viability incubated for 72 hrs by MTT assay; assay type: functional, cell-based; conditions: NCI-H1975, 72 h
Plasmodium berghei = assay: Antiplasmodial activity against Plasmodium berghei infected in Swiss mouse assessed as reduction in parasite growth at 200 mg/kg, sc administered for 7 days; assay type: functional; conditions: 168 h, time 7 day
HepG2 [3] = assay: Cytotoxicity against human HepG2 cells assessed as reduction in cell viability incubated for 72 hrs by MTT assay; assay type: functional, cell-based; conditions: HepG2, 72 h
[4] = Selectivity index, ratio of IC50 for human L02 cells to IC50 for human HepG2 cells; assay type: toxicity; conditions: L02 cells versus HepG2 cells, read-out: Ratio IC50
HL-60 [5] = assay: Cytotoxicity against human HL-60 cells assessed as reduction in cell viability incubated for 72 hrs by alamar blue assay; assay type: functional, cell-based; conditions: HL-60, 72 h
MCF7 = assay: Cytotoxicity against human MCF7 cells assessed as reduction in cell viability incubated for 72 hrs by MTT assay; assay type: functional, cell-based; conditions: MCF7, 72 h
PC-3 = assay: Cytotoxicity against human PC-3 cells assessed as reduction in cell viability incubated for 72 hrs by MTT assay; assay type: functional, cell-based; conditions: PC-3, 72 h
MX1 = assay: Cytotoxicity against human MX1 cells assessed as reduction in cell viability incubated for 72 hrs by MTT assay; assay type: functional, cell-based; conditions: MX1, 72 h
OVCAR-8 = assay: Cytotoxicity against human OVCAR-8 cells assessed as reduction in cell viability incubated for 72 hrs by MTT assay; assay type: functional, cell-based; conditions: OVCAR-8, 72 h
MDA-MB-435 = assay: Cytotoxicity against human MDA-MB-435 cells assessed as reduction in cell viability incubated for 72 hrs by MTT assay; assay type: functional, cell-based; conditions: MDA-MB-435, 72 h
HCT-8 = assay: Cytotoxicity against human HCT-8 cells assessed as reduction in cell viability incubated for 72 hrs by MTT assay; assay type: functional, cell-based; conditions: HCT-8, 72 h
MOLT-4 = assay: Cytotoxicity against human MOLT-4 cells assessed as reduction in cell viability incubated for 72 hrs by MTT assay; assay type: functional, cell-based; conditions: MOLT-4, 72 h
K562 = assay: Cytotoxicity against human K562 cells assessed as reduction in cell viability incubated for 72 hrs by MTT assay; assay type: functional, cell-based; conditions: K562, 72 h
DU-145 = assay: Cytotoxicity against human DU-145 cells assessed as reduction in cell viability incubated for 72 hrs by MTT assay; assay type: functional, cell-based; conditions: DU-145, 72 h
Hs-578T = assay: Cytotoxicity against human Hs-578T cells assessed as reduction in cell viability incubated for 72 hrs by MTT assay; assay type: functional, cell-based
CCRF-CEM = assay: Cytotoxicity against human CEM cells assessed as reduction in cell viability incubated for 72 hrs by MTT assay; assay type: functional, cell-based
SW-620 = assay: Cytotoxicity against human SW-620 cells assessed as reduction in cell viability incubated for 72 hrs by MTT assay; assay type: functional, cell-based; conditions: SW-620, 72 h
COLO 205 = assay: Cytotoxicity against human COLO 205 cells assessed as reduction in cell viability incubated for 72 hrs by MTT assay; assay type: functional, cell-based; conditions: COLO 205, 72 h
UACC-62 = assay: Cytotoxicity against human UACC-62 cells assessed as reduction in cell viability incubated for 72 hrs by MTT assay; assay type: functional, cell-based; conditions: UACC-62, 72 h
MDA-MB-231 = assay: Cytotoxicity against human MDA-MB-231 cells assessed as reduction in cell viability incubated for 72 hrs by MTT assay; assay type: functional, cell-based; conditions: MDA-MB-231, 72 h
HCT-15 = assay: Cytotoxicity against human HCT-15 cells assessed as reduction in cell viability incubated for 72 hrs by MTT assay; assay type: functional, cell-based; conditions: HCT-15, 72 h
NCI-H358 = assay: Cytotoxicity against human NCI-H358 cells assessed as reduction in cell viability incubated for 72 hrs by MTT assay; assay type: functional, cell-based; conditions: NCI-H358, 72 h
[6] = system: Staphylococcus haemolyticus; assay: Antibacterial activity against Methicillin-resistant Staphylococcus haemolyticus clinical isolates assessed as bacterial growth inhibition incubated for 24 hrs by Mueller-Hinton broth based assay; assay type: functional
[7] = system: Staphylococcus epidermidis; assay: Antibacterial activity against Methicillin-resistant Staphylococcus epidermidis clinical isolates assessed as bacterial growth inhibition incubated for 24 hrs by Mueller-Hinton broth based assay; assay type: functional
Staphylococcus aureus [8] = assay: Antibacterial activity against Methicillin-resistant Staphylococcus aureus ATCC 33591 assessed as bacterial growth inhibition incubated for 24 hrs by Mueller-Hinton broth based assay; assay type: functional
Staphylococcus aureus [9] = assay: Antibacterial activity against Methicillin-resistant Staphylococcus aureus ATCC 29213 assessed as bacterial growth inhibition incubated for 24 hrs by Mueller-Hinton broth based assay; assay type: functional
[10] = Cytotoxicity against African green monkey BSC40 cells assessed as viable cells incubated for 24 hrs by Neutral red dye based spectrophotometer analysis; assay type: toxicity, cell-based; conditions: chlorocebus aethiops, bsc40, 24 h
HepG2 [11] = assay: Cytotoxicity against human HepG2 cells assessed as reduction in cell viability incubated for 48 hrs by MTT assay; assay type: functional, cell-based; conditions: HepG2, 48 h
HCT-116 [12] = assay: Cytotoxicity against human HCT-116 cells assessed as reduction in cell viability incubated for 48 hrs by MTT assay; assay type: functional, cell-based; conditions: HCT-116, 48 h
[13] = Selectivity index, ratio of IC50 for human PBMC cells to IC50 for human HL-60 cells; assay type: toxicity; conditions: PBMC cells versus HL-60 cells, read-out: Ratio IC50
[14] = Clearance in human; assay type: ADME
[15] = Volume of distribution at steady state in human; assay type: ADME
[16] = Elimination half life in human at 1.5 mg/kg, iv; assay type: ADME, organism-based; conditions: in vivo, read-out: beta t1/2 (converted)
[17] = Oral bioavailability in human at 40 mg/kg; assay type: ADME, organism-based; conditions: in vivo
Trypanosoma cruzi = assay: Antitrypanosomal activity against bloodstream form of Trypanosoma cruzi Y trypomastigotes infected in albino mouse assessed as reduction in viable parasite in blood incubated for 24 hrs by Neubauer counting chamber method; assay type: functional, organism-based

Compound: CC1(C)CCC2=C(O1)c1ccccc1/C(=N/O)C2=O
IC50 (HCT-116 [1]): 2620 nM
IC50 (HL-60 [2]): 3840 nM
IC50 (SF-295): 3470 nM
IC50 (NCI-H1975): 2620 nM

Compound: CC1(C)Oc2c(c3nc4ccccc4nc3c3ccccc23)CC1S(=O)(=O)O (stereo not drawn)
inhibition in vivo at 200 mg/kg (Plasmodium berghei): 98%

Compound: O=C1C(=O)c2ccccc2C2=C1C1(C(=O)Nc3ccc(F)cc31)N1NN=NC1=N2 (stereo not drawn)
IC50 (HepG2 [3]): 2860 nM
selectivity ratio [4]: 20.6

Compound: CC1(C)OC2=C(C(=O)C(=O)c3ccccc32)C1n1cc(-c2ccc(Nc3ccccn3)c3nsnc23)nn1 (stereo not drawn)
IC50 (HL-60 [5]): 480 nM
IC50 (MCF7): 480 nM
IC50 (PC-3): 480 nM
IC50 (SF-295): 480 nM
IC50 (MX1): 480 nM
IC50 (OVCAR-8): 480 nM
IC50 (MDA-MB-435): 480 nM
IC50 (HCT-8): 480 nM
IC50 (MOLT-4): 480 nM
IC50 (K562): 480 nM
IC50 (DU-145): 480 nM
IC50 (Hs-578T): 480 nM
IC50 (CCRF-CEM): 480 nM
IC50 (SW-620): 480 nM
IC50 (COLO 205): 480 nM
IC50 (UACC-62): 480 nM
IC50 (MDA-MB-231): 480 nM
IC50 (HCT-15): 480 nM
IC50 (NCI-H358): 480 nM

Compound: CC1(C)OC2=C(C(=O)C(=O)c3ccccc32)C1O (stereo not drawn)
MBC [6]: > 512 µg/mL
MIC [6]: 4 µg/mL (≈ 16.4 µM)
MBC [7]: > 512 µg/mL
MIC [7]: 4 µg/mL (≈ 16.4 µM)
MBC (Staphylococcus aureus [8]): > 512 µg/mL
MIC (Staphylococcus aureus [8]): 4 µg/mL (≈ 16.4 µM)
MBC (Staphylococcus aureus [9]): > 512 µg/mL
MIC (Staphylococcus aureus [9]): 4 µg/mL (≈ 16.4 µM)
MTC [10]: 2 µg/mL

Compound: COc1cc(OC)cc(C2C3=C(N=C4N=NNN42)c2ccccc2C(=O)C3=O)c1 (stereo not drawn)
IC50 (HepG2 [11]): 1180 nM
IC50 (HCT-116 [12]): 220 nM

CL [14]: 114 L/hr/m2
Vdss [15]: 490 L/m2
half-life [16]: 2.45 h
bioavailability [17]: 15.5%
IC50 (Trypanosoma cruzi): 392000 nM
Compound: CC1(C)CCC2=C(O1)c1ccccc1C(=O)C2=O [LAPACHONE]
selectivity ratio [13]: 827

Reference: ChEMBL document CHEMBL5104093, “A comprehensive review on β-lapachone: Mechanisms, structural modifications, and therapeutic potentials” (Eur J Med Chem, 2021)
